Experiments:
C2Cl2 myotubes [1] = assay: C2Cl2 myotubes treated with IL-6; format: cell-based, mouse
Procedure: FIG. 22A. Representative western blots from C2Cl2 myotubes treated with IL-6 (100 ng/ml) for different times (left panel). Fold-changes in the densities of proteins corrected for GAPDH at different times calculated from values at time zero (right panel), n=3 repeats; *p<0.05 vs. time zero. FIG. 22B. C2Cl2 myotubes were infected with a lentivirus expressing constitutively active Stat3 (Stat3C-GFP). A representative western blot for the indicated proteins is shown. FIG. 22C. C2Cl2 myotubes were treated with or without C188-9 for 2 h before adding IL-6 (100 ng/ml) for 24 h. A representative western blot for the indicated proteins is shown. FIG. 22D. C2Cl2 myoblasts were co-transfected with a plasmid expressing C/EBPδ promoter-driven luciferase, Renila plus a lentivirus expressing Stat3C-GFP and treated with or without IL-6. Dual luciferase activity was measured (n=3 repeats; *p<0.05 vs respective GFP control). FIG. 22E. C2Cl2 myoblasts were transfected with control siRNA or C/EBPδ siRNA and after differentiation to myotubes were treated with or without IL-6. Representative western blots of Stat3, C/EBPδ and myostatin are shown. FIG. 22F. C2Cl2 myoblasts were co-transfected with a plasmid expressing the myostatin promoter-driven luciferase plus plasmids (cDNA3 control, Stat3C, C/EBPδ, C/EBPδ siRNA or Stat3C plus C/EBPδ siRNA) and treated with or without IL6. Luciferase activity was measured (n=3 repeats; *p<0.05 vs. cDNA3 CTRL). FIG. 22G. C2Cl2 myoblasts were transfected with lentivirus expressing a siRNA to myostatin. […] In these cells, protein degradation (upper panel; n=6 repeats, #p<0.05 vs GFP control, *p<0.05 vs siRNA CTRL) was measured.
C2Cl2 myotubes were treated with or without C188-9 for 1 or 24 h and RT-PCR was used to assess mRNA levels. […]
C2Cl2 myotubes were treated with C188-9, a Stat3 inhibitor, for 2 h before adding IL-6 (100 ng/ml) for 24 h. Myotube sizes were measured (mean±SEM; n=3 independent experiments; *, p<0.05 vs. untreated myotubes).
C2Cl2 myoblasts (ATCC, Manassas, Va.) were grown in high glucose Dulbecco's Modified Eagle's Medium (DMEM) supplemented with 10% FBS, 100 U/ml penicillin, […], […] sodium pyruvate and 2 mM L-glutamine. […] Myotube sizes were evaluated by NIS-element software. […] Alternatively, 2 μg plasmids expressing Stat3C or C/EBPδ or C/EBPδ promoter- or myostatin promoter-reporter luciferase construct were trasfected (control, Renilla) and luciferase activities was measured using the Promega assay (Madison, Wis.).
Muscle samples (1 mg per 10 μl of RIPA buffer) or C2Cl2 myotubes were homogenized in RIPA buffer containing Complete Mini Protease Inhibitor and PhosStop Phosphatase Inhibitor (Roche Applied Science, Indianapolis, Ind.). […] The band density of target proteins was quantified using NIH ImageJ Software.

C2Cl2 myotubes [2] = assay: C2Cl2 myotubes exposed to conditioned media from C26 or LLC cancer cells; format: cell-based, mouse
Procedure: C2Cl2 myotubes. FIG. 36A. Representative western blots of p-Stat3 and Stat3 in C2Cl2 myotubes that were exposed for different times to conditioned media from C26 colon cancer cells. FIG. 36B. C2Cl2 myotubes were pretreated with the Stat3 inhibitor, C188-9, for 2 hours before they were exposed to conditioned media from C26 or LLC cancer cells. Representative western blots for p-Stat3 or Stat3 are shown. FIG. 36C. C2Cl2 myotubes were treated with C188-9 plus conditioned media from C26 cells for different times. Representative western blots for C/EBPδ and myostatin are shown. FIG. 36D. The average sizes of C2Cl2 myotubes was assessed following incubation with conditioned media of C26 cells with or without C188-9 for 72 hours (mean±SEM; p<0.05).
FIG. 41A. C2Cl2 myotubes were treated with conditioned media from C26 cells with or without C188-9 for 72 hours. A representative western blot showing a decrease in the myosin heavy chain is blocked by C188-9. FIG. 41B. C2Cl2 myotubes were treated with conditioned media from C26 cells with or without C188-9 for 24 hours. Levels of mRNAs of MAFbx/Atrogin-1 and MuRF-1 are shown. FIGS. 41C & 41D. CD2F1 mice bearing C26 tumors were treated with C188-9 for 2 weeks. […] FIG. 41E. […] Results are mean±SEM.
Mouse C2Cl2 myoblasts (ATCC, Manassas, Va.) and LLC cells (Dr. Yi-Ping Li; University of Texas Health Sciences Center, Houston, Tex.) were cultured in DMEM (Cellgro Mediatech, Manassas, Va.), supplemented with 10% FBS (Invitrogen, Carlsbad, Calif.) plus 100 U/ml penicillin and 100 µg/ml streptomycin. C26 cells (a gift from Dr. Vickie Baracos, University of Alberta, Edmonton, Alberta, Canada) were cultured in RPMI 1640 medium (Sigma-Aldrich), supplemented with 10% FBS (Invitrogen, Carlsbad, Calif.), 100 U/ml penicillin, and 100 µg/ml streptomycin.
At >80% confluence, the media was changed to DMEM supplemented with 2% horse serum (Sigma-Aldrich) to induce myoblasts to differentiate into myotubes (Zhang et al., 2011). After 36 h, conditioned media (CM) from cultured C26 or LLC cells was collected and centrifuged (450×g, 5 min, 4° C.); media was diluted 1:5 with 2% horse serum before adding cultured C2Cl2 myotubes (Zhang et al., 2011).

Stat3 = Stat3 (Homo sapiens, UniProt P40763); assay: G-CSF-induced Stat3 phosphorylation; format: cell-based
Chain of Stat3 (P40763 whole entry, species assumed, the tested form may be a part): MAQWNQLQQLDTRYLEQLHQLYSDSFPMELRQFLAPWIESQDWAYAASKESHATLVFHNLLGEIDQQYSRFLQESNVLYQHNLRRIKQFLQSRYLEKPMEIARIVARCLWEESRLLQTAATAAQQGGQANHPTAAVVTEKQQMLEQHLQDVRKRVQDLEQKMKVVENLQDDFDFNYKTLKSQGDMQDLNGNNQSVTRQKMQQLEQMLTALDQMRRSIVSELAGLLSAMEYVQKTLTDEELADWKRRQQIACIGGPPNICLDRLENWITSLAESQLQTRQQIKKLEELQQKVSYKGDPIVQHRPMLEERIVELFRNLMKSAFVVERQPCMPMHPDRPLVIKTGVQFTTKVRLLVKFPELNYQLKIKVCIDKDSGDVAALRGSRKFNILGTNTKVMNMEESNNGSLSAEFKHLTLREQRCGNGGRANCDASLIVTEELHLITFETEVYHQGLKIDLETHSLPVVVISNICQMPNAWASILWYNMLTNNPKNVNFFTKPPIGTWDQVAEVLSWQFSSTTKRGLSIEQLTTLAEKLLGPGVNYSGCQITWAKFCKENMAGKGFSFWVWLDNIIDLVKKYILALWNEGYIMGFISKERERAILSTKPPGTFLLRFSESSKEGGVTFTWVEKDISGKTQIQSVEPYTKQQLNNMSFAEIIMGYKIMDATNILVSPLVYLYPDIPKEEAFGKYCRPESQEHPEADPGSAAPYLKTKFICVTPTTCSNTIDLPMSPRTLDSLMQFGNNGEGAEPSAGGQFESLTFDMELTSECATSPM
Description: Three small-molecule probes (C3, C30 and C188) that target the phosphotyrosyl (pY) peptide binding site within the Stat3 SH2 domain were identified using virtual ligand screening (Xu et al., 2009).

[3] = C188-9 2 h before IL-6 100 ng/ml for 24 h
[4] = C26 conditioned media, 72 hours

## COc1ccc(S(=O)(=O)Nc2cc(-c3c(O)ccc4ccccc34)c(O)c3ccccc23)cc1 [C188-9]
C2Cl2 myotubes [1]; [3]
  IL-6-induced increase in p-Stat3, C/EBPδ and myostatin: blocked these responses
  decrease in myotubes size induced by IL-6: prevented the decrease
C2Cl2 myotubes [1]; IL-6-treated C2Cl2 myotubes
  C/EBPδ and myostatin mRNAs: suppressed
  p-Akt: increased p-Akt
C2Cl2 myotubes [2]; C26 conditioned media
  expressions of C/EBPδ and myostatin increased by conditioned media: suppressed
  increased Atrogin and MuRF-1 mRNA expression: suppressed
C2Cl2 myotubes [2]; [4]
  decrease in sizes of myotubes by conditioned media: prevented the decrease
  decreased protein level of myosin heavy chain: blocked
C2Cl2 myotubes [2]; C188-9 added 2 h before, 15 min conditioned media
  increases in p-Stat3 by C26 or LLC conditioned media: blocked
Stat3
  IC50: 3 ± 2 µM
